Where two headings read alike, the source gives them in different places.
Columns and labels:
[1] = tested on: wild type NL-4.3; test: multi-cycle infection assay in MT-4 cells (MTT cytoprotection); assay type: cell-based, HIV-1; conditions: Human immunodeficiency virus 1, MT4, 144 h, read-out: EC50 (nM) multi-cycle
Description: The antiviral efficacies of the integrase inhibitor compounds of the invention were evaluated based on EC50 measures obtained from two different in vitro HIV infection assay using cultured MT-4 cells: (1) a multi-cycle infection where cells were infected with wild type NL-4.3) and (2) a single-cycle infection where the cells were infected with a luciferase-bearing, envelope defective (env-) NL-4.3 virus pseudotyped with HIV-1 env (HXBc2.
The incubation period for the multi-cycle infection assay was 6 days. Cell viability (cytoprotection) and EC50 were determined using the colorimetric MTT assay (A. J. Japour et al, Antimicrobial Agents and Chemotherapy, 37, 1095-1101, 1993 and R. Pauwels et al. Journal of Virological Methods, 20, 309-321, 1988).

[2] = tested on: NL4.3 virus; test: multi-cycle antiviral activity in absence and presence of human serum, p24 ELISA; assay type: cell-based, HIV-1; conditions: for EC50: Human immunodeficiency virus 1, 144 h
Description: (§1) Protein binding was tested by Rapid Equilibrium Dialysis (RED) method (The RED (Rapid equilibrium Dialysis) Device inserts instruction manual. Pierce, Rockford Ill.). […] The red chamber was loaded with 0.3 mL of samples containing compounds. The white chamber contained 0.5 mL of D-PBS buffer only. The plate was incubated at 37° C. while shaking at 150 rpm for 5 hours. Aliquots from both chambers were analyzed by LC/MS/MS. The multi-cycle antiviral activity in the absence and presence of human serum was determined by p24 ELISA measurement after 6 days of NL4.3 virus infection.

[3] = protein binding by Rapid Equilibrium Dialysis (RED), human serum; assay type: in vitro ADME; conditions: 37° C., 100% HS
Description: as §1

[4] = human liver microsome stability; assay type: in vitro ADME; conditions: pH 7.4, 1 μM compound
Description: After pre-incubation, the assay was started by the addition of 1 μM of compound. Samples were taken after 0, 15, 30, 60, 90 and 120 minutes of incubation (Fisher M B, Drug Metabolism and Disposition, 2000, 28, 560-566). GraphPad Prism software was used for data analysis. The results, showing that the compounds of the invention are metabolically stable in Human liver microsomes, are provided in Table 7 below.

[5] = protein binding by Rapid Equilibrium Dialysis (RED), 10% FBS-RPMI; assay type: in vitro ADME; conditions: bovine, 37° C.
Description: as §1

[6] = molecular target: T1, CYP2C9 (Homo sapiens, UniProt P11712); test: human CYP inhibition in human liver microsomes; assay type: in vitro ADME
T1 construct: the incubation medium contained 0.3 mg/mL human liver microsomes; from tissue; host or cells: human liver microsomes
Description: (§2) For the human CYP inhibition experiments, the incubation medium contained 0.3 mg/mL human liver microsomes, 100 mM phosphate buffer pH 7.4, 5 mM MgCl2, 1 mM EDTA. The respective substrates for CYP3A4, CYP2C9 and CYP2D6 were added at various concentrations in the presence or absence of the compounds tested. After pre-incubation, the reaction was initiated by the addition of NADPH at final concentration 1 mM. Incubation times were 10, 60 and 15 minutes for CYP3A4, CYP2C9 and CYP2D6, respectively (Walsky R L and Obach R S., Drug Metabolism and Disposition, 2004, 32, 647-660). GraphPad Prism software was used for data analysis.

[7] = molecular target: T2, CYP3A4 (Homo sapiens, UniProt P08684); test: human CYP inhibition in human liver microsomes; assay type: in vitro ADME; conditions: CYP3A4 (printed CYP34A)
T2 construct: the incubation medium contained 0.3 mg/mL human liver microsomes; from tissue; host or cells: human liver microsomes
Description: as §2

[8] = tested on: HIV-1 isolate 94US33931N; test: acute infection assay in PHA-stimulated PBMCs, supernatant RT activity; assay type: cell-based; conditions: Human immunodeficiency virus 1, PBMC, 144 h, 6 day incubation
Description: (§3) Acute infection assays using fresh human phytohemagglutinin (PHA)-stimulated peripheral blood mononuclear cells (PBMCs) were carried out. PBMCs were stimulated with IL-2 and infected with one of two wild-type drug-sensitive clinical HIV-1 isolates. The strains HIV-1 used for the infections, 91US005 (primary R5 strain of HIV-1) and 94US33931N, are both Group M, Subtype B viruses. Antiviral activity was determined as a reduction in supernatent reverse transcriptase (RT) activity after a 6 day incubation.

[9] = tested on: HIV-1 isolate 91US005; test: as above; assay type: cell-based; conditions: Human immunodeficiency virus 1, PBMC, 144 h, HIV-1 isolate 91US005, 6 day incubation
Description: as §3

[10] = pharmacokinetic (PK) profile in rats; assay type: in vivo; conditions: female Sprague-Dawley rats, 5 mg/kg intravenously, 50 mg/kg orally, plasma LC/MS/MS
Description: Female Sprague-Dawley rats were randomly selected and assigned to two groups. A group of 13 rats were administered 5 mg/kg of compound 2 intravenously. A second group of 8 rats were administered 50 mg/kg of compound 2 orally. Following the dosing, blood was collected at 7 different time points. Plasma samples obtained from the blood samples were analyzed by LC/MS/MS and the bioavailability of compound 2 was determined.

[11] = molecular target: T3, recombinant HIV-1 integrase (Human immunodeficiency virus type 1 group M subtype B, UniProt P12497); test: integrase strand transfer assay; assay type: biochemical; conditions: compounds added after assembly, 10% DMSO, read-out: ST IC50
T3 construct: Recombinant integrase (250 ng/well) was assembled onto the immobilized donor oligonucleotide
Description: IC50 was determined for the compounds of the inventions based on data generated in strand transfer assays. The IC50 is a measure of the ability of the compounds tested to inhibit the integration of 3′-processed oligonucleotides by recombinant HIV-1 integrase.
Strand transfer assays were performed essentially as described in Hazuda, D. J.; Felock, P.; Hastings, J. C.; Pramanik, B.; Wolfe, A. J. Virol. 1997, 71, 7005-7011). Donor DNA (1.5 pmol/well), biotinylated on the 5′ end of the strand processed by integrase, was immobilized onto streptavidin-coated microtiter plates. Recombinant integrase (250 ng/well) was assembled onto the immobilized donor oligonucleotide in reaction buffer (20 mM Hepes, pH 7.6, 5 mM B-mercaptoethanol, 50 ug/mL bovine serum albumin) containing 30 mM MnCl2. Excess enzyme was removed, and the complexes were washed extensively prior to the addition of the target DNA substrate. The target DNA (0.75 pmoles/well) substrate was labeled on each 3′ end with FITC. After strand transfer, the FITC-labeled products were detected using an anti-FITC antibody conjugated with alkaline phosphatase (Roche) and a chemiluminescent substrate (Tropix CSPD with Sapphire II enhancer, Applied Biosystems). The assay was performed in a final concentration of 10% DMSO. To specifically evaluate inhibition of strand transfer, compounds were added after assembly, just prior to the addition of the target DNA.
The results of the integrase strand transfer assay are reported as IC50 values. IC50 values were determined using a sigmoidal dose-response equation. The formula used for calculating % inhibition was: % Inhibition=[1-(sample counts/average of positive control)]*100. […] Using GraphPad Prism or ActivityBase (IDBS) software IC50 was determined using following sigmoidal dose-response equation: Y=(A+((B−A)/(1+((C/X)^D))))

[12] = MT-4 cells, wild type NL-4.3, 6 days, MTT
[13] = human liver microsomes, 1 mM NADPH and 1 mM UDPGA, read-out: Half-life in HLM (hrs) NADPH/UDPGA (converted)
[14] = human liver microsomes, 1 mM NADPH, read-out: Half-life in HLM (hrs) NADPH (converted)
[15] = human liver microsomes, 1 mM UDPGA, read-out: Half-life in HLM (hrs) UDPGA (converted)

T2 sequence (P08684 whole entry): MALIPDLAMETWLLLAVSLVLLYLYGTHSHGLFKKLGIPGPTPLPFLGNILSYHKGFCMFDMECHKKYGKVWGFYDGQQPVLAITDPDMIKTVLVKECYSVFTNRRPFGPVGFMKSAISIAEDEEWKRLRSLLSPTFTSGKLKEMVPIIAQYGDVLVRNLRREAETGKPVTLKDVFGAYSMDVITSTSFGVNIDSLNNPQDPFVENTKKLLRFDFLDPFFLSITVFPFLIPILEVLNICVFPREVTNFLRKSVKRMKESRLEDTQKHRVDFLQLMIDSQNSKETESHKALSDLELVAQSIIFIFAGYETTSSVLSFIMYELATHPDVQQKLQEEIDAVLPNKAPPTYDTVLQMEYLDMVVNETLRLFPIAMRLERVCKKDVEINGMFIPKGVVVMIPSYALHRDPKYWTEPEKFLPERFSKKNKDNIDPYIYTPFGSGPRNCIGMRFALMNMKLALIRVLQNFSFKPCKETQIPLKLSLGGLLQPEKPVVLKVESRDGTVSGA
T1 sequence (P11712 whole entry): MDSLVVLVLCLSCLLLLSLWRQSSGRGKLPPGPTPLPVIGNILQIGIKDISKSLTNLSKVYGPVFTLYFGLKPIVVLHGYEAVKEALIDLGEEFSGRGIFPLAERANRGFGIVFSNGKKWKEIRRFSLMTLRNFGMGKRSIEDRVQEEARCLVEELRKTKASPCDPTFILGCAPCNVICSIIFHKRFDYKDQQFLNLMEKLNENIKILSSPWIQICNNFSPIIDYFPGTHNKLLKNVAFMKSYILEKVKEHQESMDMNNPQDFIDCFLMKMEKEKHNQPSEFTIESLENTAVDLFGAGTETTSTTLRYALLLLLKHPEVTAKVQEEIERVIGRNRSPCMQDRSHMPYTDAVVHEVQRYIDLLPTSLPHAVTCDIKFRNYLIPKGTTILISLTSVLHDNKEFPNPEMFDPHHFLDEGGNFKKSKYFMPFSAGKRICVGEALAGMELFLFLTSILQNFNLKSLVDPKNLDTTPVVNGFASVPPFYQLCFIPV

| half-life at 1 μM [4, 13] | half-life at 1 μM [4, 14] | half-life at 1 μM [4, 15] | EC50 [8] | EC50 [9] | Compound | EC50 [1, 12] | IC50 [11] | other results |
| --- | --- | --- | --- | --- | --- | --- | --- | --- |
| 3.9 h | 7.4 h | 19.7 h |  |  | O=C(NCc1ccc(F)cc1)c1cnc(C(=O)NOCc2ccccc2)c(OCc2ccccc2)c1CO [Example 1, N^2,3-bis(benzyloxy)-N^5-(4-fluorobenzyl)-4-(hydroxymethyl)pyridine-2,5-dicarboxamide] | > 10000 nM |  | Fold-change with HS ([2]; EC50 with 40% HS versus 10% FBS): 2.1; EC50 ([2]; 10% FBS + 40% HS, p24 ELISA after 6 days, read-out: EC50 (uM) 10% FBS + 40% HS): 0.481 µM; EC50 ([2]; 10% FBS, p24 ELISA after 6 days, read-out: EC50 (uM) 10% FBS): 0.227 µM; fraction unbound at 5 hours, 1 uM ([3]; human serum (100%)): 0.11; fraction unbound at 5 hours, 1 uM ([5]; 10% FBS-RPMI): 0.475; Ki [6]: 63.6 µM; Ki [7]: 5.1 µM |
|  |  |  | 0.003 µM | 0.006 µM | Cc1cn([C@H]2C[C@H](N=[N+]=[N-])[C@@H](CO)O2)c(=O)[nH]c1=O [Retrovir (AZT), 3-Azido-3-deoxythymine (Zidovudine), reference compound] |  |  |  |
|  |  |  |  |  | O=C(NCc1ccc(F)c(Cl)c1)c1cnc(C(=O)NO)c(O)c1CO [Example 14, N^5-(3-chloro-4-fluorobenzyl)-N2,3-dihydroxy-4-(hydroxymethyl)pyridine-2,5-dicarboxamide] | 123 nM | 0.027 µM |  |
| 1.95 h | 6.18 h | 3.8 h | 0.03 µM | 0.093 µM | O=C(NCc1ccc2c(c1)OCO2)c1cnc(C(=O)NOCc2ccccc2)c(OCc2ccccc2)c1CO [Example 3, N^5-(benzo[d][1,3]dioxol-5-ylmethyl)-N2,3-bis(benzyloxy)-4-(hydroxymethyl)pyridine-2,5-dicarboxamide] | > 10000 nM |  | Ki [7]: 587 µM |
|  |  |  |  |  | Cc1nnc(C(=O)NC(C)(C)c2nc(C(=O)NCc3ccc(F)cc3)c(O)c(=O)n2C)o1 [Raltegravir, reference compound] |  |  | EC50 [1]: 20 nM; EC50 ([2]; read-out: EC50 (uM) 10% FBS): 0.047 µM; EC50 ([2]; read-out: EC50 (uM) 10% FBS + 40% HS): 0.064 µM; fraction unbound at 5 hours, 1 uM ([3]; serum): 0.133; half-life at 1 μM ([4]; microsomes, 1 mM NADPH and 1 mM UDPGA, read-out: Half-life in HLM (hrs) NADPH/UDPGA (converted)): 11 h; half-life at 1 μM ([4]; microsomes, 1 mM NADPH, read-out: Half-life in HLM (hrs) NADPH (converted)): 19.7 h; half-life at 1 μM ([4]; microsomes, 1 mM UDPGA, read-out: Half-life in HLM (hrs) UDPGA (converted)): 7.03 h; fraction unbound at 5 hours, 1 uM ([5]; serum): 0.653 |
|  |  |  |  |  | O=C(NO)c1ncc(COCc2ccccc2)c(CO)c1O [Example 18, 5-(Benzyloxymethyl)-N,3-dihydroxy-4-(hydroxymethyl)picolinamide] | 86 nM | 0.088 µM |  |

| Compound | half-life at 1 μM [4, 13] | half-life at 1 μM [4, 14] | half-life at 1 μM [4, 15] | EC50 [8] | EC50 [9] | EC50 [1, 12] | IC50 [11] | other results |
| --- | --- | --- | --- | --- | --- | --- | --- | --- |
| O=C(NCc1ccc(F)cc1)c1cnc(C(=O)NO)c(O)c1CO [Example 2, N^5-(4-fluorobenzyl)-N^2,3-dihydroxy-4-(hydroxymethyl)pyridine-2,5-dicarboxamide] | 5.9 h | 5 h | 16 h | 0.123 µM | 0.076 µM | 358 nM | 0.303 µM | adsorption / PK profile (FIG. 1) [10]: high adsorption; fraction unbound at 5 hours, 1 uM ([3]; human serum (100%)): 0.155; fraction unbound at 5 hours, 1 uM ([5]; 10% FBS-RPMI): 0.681 |
